According to patent US6987092B1, “Indigoid bisindole derivatives” (Faustus Forschungs Cie. Translational Cancer Research GmbH, priority 1999, dated 2006):

Columns and labels:
Assay type in all cases: cell-based
[1] = test system: LXFL-529L cells; assay: Cellular uptake by LXFL-529L cells; conditions: 2 hours; for distribution particular: cellular organelles
Experimental: The amounts of the substances which were taken up by the cells are given depending on the concentration of the substance within the incubation medium. The time of incubation was 2 hours in all of the experiments. Furthermore, distribution between cytosol and the cellular organelles (particular) was measured and is given in the last two columns of Table 3.

[2] = test system: cells of the large-cell lung carcinoma of the tumor line LXFL-529L; assay: Tumor cell growth inhibition, SRB-assay, LXFL-529L; conditions: 50% growth inhibition, three days incubation in serum-containing medium
[3] = test system: cells of the mammary carcinoma cell line MCF-7; assay: Tumor cell growth inhibition, SRB-assay, MCF-7; conditions: 50% growth inhibition, three days incubation in serum-containing medium
[4] = concentration of incubation 10 μM
[5] = concentration of incubation 20 μM
[6] = concentration of incubation 50 μM

Row | Compound | distribution particular [1, 4] | distribution particular [1, 5] | amount taken up [1, 4] | distribution cytosol [1, 4] | amount taken up [1, 5] | distribution cytosol [1, 5] | IC50 [2] | IC50 [3] | distribution particular [1, 6] | amount taken up [1, 6] | distribution cytosol [1, 6]
1 | CCc1ccc2c(c1)C(=C1Nc3ccccc3C1=NO)C(=O)N2 [Example 26, 5-ethyl-indirubin-3′-monooxime] | 82 ± 6% | 89 ± 5% | 0.10 ± 0.03 μg/mg protein | 18 ± 3% | 0.13 ± 0.05 μg/mg protein | 11 ± 3% | 6 ± 0.6 µM | 7 ± 0.9 µM | – | – | –
2 | O=C1Nc2ccccc2C1=C1Nc2ccccc2C1=NOCCO [Example 31] | 93 ± 7% | 93 ± 6% | 0.27 ± 0.06 μg/mg protein | 7 ± 1% | 0.31 ± 0.07 μg/mg protein | 7 ± 2% | 1.5 ± 0.4 µM | 2.5 ± 0.4 µM | – | – | –
3 | COC(=O)CNC(=O)Cc1ccc2c(c1)C(=C1Nc3ccccc3C1=O)C(=O)N2 [Example 12, methyl-2-{2-[3-(3′-oxo-(2′H3′H)indol-2′-ylidene)-(2H3H)indol-2-one-5-yl]-acetylamino}-acetate] | – | – | – | – | – | – | 8 ± 0.8 µM | 6.5 ± 1.2 µM | – | – | –
4 | CCOC(=O)ON=C1C(=C2C(=O)Nc3ccccc32)Nc2ccccc21 [Example 39, 3-[3′-(iminooxy-O-carbethoxy)-(2′H3′H)indol-2′-ylidene]-(2H3H)indol-2-one] | – | – | – | – | – | – | 4.5 ± 0.7 µM | 10 ± 0.9 µM | – | – | –
5 | CCOP(=O)(Cc1ccc2c(c1)C(=C1Nc3ccccc3C1=O)C(=O)N2)OCC [Example 14, diethyl-{[3-(3′-oxo-(2′H3′H)indol-2′-ylidene)-(2H3H)indol-2-one-5-yl]-methyl}-phosphonate] | – | – | – | – | – | – | 6.5 ± 1.2 µM | 6 ± 1.1 µM | – | – | –
6 | Nc1ccc2c(c1)C(=C1Nc3ccccc3C1=O)C(=O)N2 [Example 15, 5-amino-indirubin] | 85 ± 4% | 94 ± 4% | 0.25 ± 0.04 μg/mg protein | 15 ± 2% | 0.29 ± 0.05 μg/mg protein | 6 ± 1% | 8 ± 0.7 µM | 5 ± 0.5 µM | – | – | –
7 | O=C1Nc2ccccc2C1=C1Nc2ccccc2C1=NOCCOCCO [Example 33, 3-{3′-[iminooxy-O-(2-(2-hydroxy-ethoxy)-ethyl)]-(2′H3′H)indol-2′-ylidene}-(2H3H)indol-2-one] | – | – | – | – | – | – | 2 ± 0.4 µM | 2.5 ± 0.5 µM | – | – | –
8 | O=C(O)CCC(=O)Nc1ccc2c(c1)C(=C1Nc3ccccc3C1=O)C(=O)N2 [Example 17, [3-(3′-oxo-(2′H3′H)indol-2′-ylidene)-(2H3H)indol-2-one-5-yl]-succinamic acid] | – | – | – | – | – | – | 12.5 ± 0.7 µM | 14 ± 0.9 µM | – | – | –

More lines, now with the values ahead:

Row | distribution particular [1, 4] | distribution particular [1, 5] | amount taken up [1, 4] | distribution cytosol [1, 4] | amount taken up [1, 5] | distribution cytosol [1, 5] | IC50 [2] | IC50 [3] | distribution particular [1, 6] | amount taken up [1, 6] | distribution cytosol [1, 6] | Compound
9 | 80 ± 5% | 84 ± 4% | 0.12 ± 0.03 μg/mg protein | 20 ± 4% | 0.15 ± 0.04 μg/mg protein | 16 ± 3% | 6 ± 0.8 µM | 6 ± 0.9 µM | 90 ± 8% | 0.18 ± 0.06 μg/mg protein | 10 ± 4% | Cc1ccc2c(c1)C(=C1Nc3ccccc3C1=NO)C(=O)N2 [Example 25, 5-methyl-indirubin-3′-monooxime]
10 | 90 ± 6% | 94 ± 5% | 0.20 ± 0.06 μg/mg protein | 10 ± 2% | 0.23 ± 0.05 μg/mg protein | 90 ± 6% | 7.5 ± 0.4 µM | 5 ± 0.8 µM | – | – | – | Nc1ccc2c(c1)C(=C1Nc3ccccc3C1=NO)C(=O)N2 [Example 28, 5-amino-indirubin-3′-monooxime]
11 | 87 ± 7% | 95 ± 6% | 0.20 ± 0.05 μg/mg protein | 13 ± 3% | 0.25 ± 0.04 μg/mg protein | 5 ± 1% | 21 ± 1.5 µM | 3.5 ± 0.6 µM | – | – | – | 3-{3′-[iminooxy-O-(2-D-glucopyranosylethyl)]-(2′H3′H)indol-2′-ylidene}-(2H3H)indol-2-one [Example 48]
12 | – | – | – | – | – | – | 17 ± 0.8 µM | 2.5 ± 0.8 µM | – | – | – | 3-[3′-[iminooxy-O-(2-D-glucopyranosylethyl)]-(2H′3H′)indol-2′-ylidene]-5-methyl-(2H3H)indol-2-one [Example 68]
13 | – | – | – | – | – | – | 11.5 ± 0.6 µM | 17 ± 1 µM | – | – | – | CNC(=O)Cc1ccc2c(c1)C(=C1Nc3ccccc3C1=O)C(=O)N2 [Example 9, N-methyl-2-[3-(3′-oxo-(2′H3′H)indol-2′-ylidene)-(2H3H)indol-2-one-5-yl]-acetamide]
14 | – | – | – | – | – | – | 5 ± 0.9 µM | 6.5 ± 1.1 µM | – | – | – | CN(C)CCON=C1C(=C2C(=O)Nc3ccccc32)Nc2ccccc21 [Example 58, 3-{3′-[iminooxy-O-((N,N)-dimethyl-2-amino-ethyl)]-(2′H3′H)indol-2′-ylidene}-(2H3H)indol-2-one]
15 | – | – | – | – | – | – | 16 ± 0.9 µM | 20 ± 1.3 µM | – | – | – | CN(C)C(=O)Cc1ccc2c(c1)C(=C1Nc3ccccc3C1=O)C(=O)N2 [Example 10, N,N-dimethyl-2-[3-(3′-oxo-(2′H3′H)indol-2′-ylidene)-(2H3H)indol-2-one-5-yl]-acetamide]
16 | 90 ± 6% | 95 ± 3% | 0.20 ± 0.05 μg/mg protein | 10 ± 2% | 0.22 ± 0.07 μg/mg protein | 5 ± 2% | 7 ± 0.2 µM | 7 ± 0.2 µM | – | – | – | CCc1ccc2c(c1)/C(=C1/Nc3ccccc3C1=O)C(=O)N2 [Example 2, 5-ethyl-indirubin]
17 | – | – | – | – | – | – | 3 ± 0.5 µM | 2 ± 0.3 µM | – | – | – | O=C1Nc2ccc(S(=O)(=O)N3CCNCC3)cc2C1=C1Nc2ccccc2C1=O [Example 22, indirubin-5-sulfonic acid-(piperazin-1-yl-amide)]
18 | – | – | – | – | – | – | 3 ± 0.5 µM | 5 ± 0.6 µM | – | – | – | O=C1Nc2ccc(NCCO)cc2C1=C1Nc2ccccc2C1=O [Example 21, 5-(2-hydroxy-ethyl)-amino-indirubin]
19 | – | – | – | – | – | – | 3 ± 0.6 µM | 3 ± 0.8 µM | – | – | – | O=C1Nc2ccccc2C1=C1Nc2ccccc2C1=NOCCNC[C@H](O)[C@@H](O)[C@H](O)[C@H](O)CO [Example 55, 3-{3′-[iminooxy-O-(N-(1-deoxy-glucitol)-2-amino-ethyl)]-(2′H3′H)indol-2′-ylidene}-(2H3H)indol-2-one]
